One data set relates to UM-RC-2. As to the kind of experiment: IC50 in renal cancer cell line UM-RC-2. Format: cell-based. The conditions noted are these: UMRC2.
A short description of data set [1]: Beagle dog 4-week toxicology and toxicokinetics.
For a further data set, the system named is NF-κB. Description: NF-κB SEAP reporter and p65 fractionation in THP-1 cells. Format: cell-based. Here is the method: Cells were harvested and lyzed using RIPA lysis and extraction buffer (Thermo Scientific) following manufacturer's protocol. Twenty to 30 μg of total protein lysates was loaded on Mini-PROTEAN TGX precast gels (Bio-Rad). Separated proteins were transferred to a polyvinylidene difluoride (PVDF) membrane using Trans-Blot Turbo Transfer System (Bio-Rad) followed by incubation with primary and horseradish peroxidase (HRP)–conjugated secondary antibodies [anti-mouse, catalog no. 7076S, Cell Signaling Technology (CST) or anti-rabbit, catalog no. 7074S, CST] and ECL Prime Western blotting (GE Healthcare) detection. For fractionation, cells were grown in 10-cm tissue culture plates and treated with 30 or 60 μmol/L of 3′-dA or NUC-7738 for 6 hours. Cells were grown in 10-cm tissue culture plates and fractionated using the Nuclear Extraction Kit (Abcam) following manufacturer's instructions. Twenty-five micrograms of each fraction was used for Western blot (WB) detection. NF-κB p65 antibody (catalog no. 8242, CST), nuclear marker Lamin B1 (catalog no. ab16048, Abcam), cytosolic GAPDH (catalog no. 97166, CST), cleaved PARP (catalog no. 9541, CST), and Actin (MAB1501, Merck) were used.
Figure 5. […] C, NF-κB activity was measured using the SEAP reporter gene assay in THP-1 cells. […] SEAP production as result of NF-κB activity was measured using the QuantiBlue colorimetric enzyme assay. […]

On the set-up of data set [2]: method as in earlier work. The conditions noted are these: patients, particularly immunotherapy-resistant melanoma; cited from earlier work.
Another data set has as its system 786-O. Description: IC50 in renal cancer cell line 786-O. The following applies: Homo sapiens, 786-0. Format: cell-based.
In a further data set the test system is SK-OV3. As to the kind of experiment: MTT cell viability, SK-OV3. The class given is cell-based. The conditions noted are these: Homo sapiens, SK-OV-3, 48 h. As for the experimental part:
(§1) Cells (10^4) were seeded into 96-well plates and then treated with NUC-7738 (lot 5132/E00393/119) or 3′-dA (cordycepin, catalog no. C3394, lot 067M4182, Sigma) for 48 hours. One and a half milligrams per milliliter MTT (catalog no. M6494, Invitrogen) in a 1:1 ratio was added to cell culture media. After a 2-hour incubation at 37°C, media was removed and 70 μl of isopropanol was added. Optical densities at 570 nm were measured using POLARstar Omega plate reader. Readouts were normalized and IC50 values were calculated using a nonlinear regression model in Graphpad prism (v8.3.0). Each biological replicate (at least 3) was performed in 4 technical replicates to calculate the average IC50 value. To measure apoptosis, the Guava NexinReagent (Luminex Corp.) was used following manufacturer's instructions. Fluorescence staining was measured with an automated 96-well Guava easyCyte Flow Cytometer (Luminex Corp.).

The test system of a further data set is HAP1 cells. As to the kind of experiment: HAP1 viability with ADA, hENT1 or ADK inhibitors. The class given is cell-based, human. The following applies: HAP1, EHNA, NBTI, A134974. Here is the method: as §1
To assess whether NUC-7738 was resistant to ADA and could bypass ADK and hENT1 (SLC29A1), cell viability was measured after treatment with their specific and corresponding protein inhibitors: erythro-9-(2-Hydroxy-3-nonyl) adenine hydrochloride (EHNA), A134974, and S-(4-nitrobenzyl)-6-thioinosine (NBTI), respectively ([16, 17, 34, 35]).

The test system of data set [3] is human ccRCC tissue slices. As to the kind of experiment: Ex vivo tissue slice culture of clear cell renal carcinoma. The conditions noted are these: 0, 5 and 25 μmol/L, 24 hours. Format: cell-based. The text has this:
A fresh sample of clear cell renal carcinoma (ccRCC) was placed in formalin to serve as a formalin control for our experiment. The sample was transported in precooled 199 medium (catalog no. 2154) supplemented with penicillin/streptomycin (1%), Normocin (0.2%), and Glutamax (2 mmol/L). The tissue sample was embedded in low-melting point agarose gel and sliced into 250-μm sections using a Vibratome VT1000S (Leica Biosystems). Tissue slices were put immediately into media (199 medium supplemented with 10% FBS, 2 mmol/L Glutamax, and 1% penicillin/streptomycin) containing different concentrations of NUC-7738 (0, 5, and 25 μmol/L) and incubated for 24 hours at 37°C. Treated tissue sections were then fixed using PFA for 1 hour at room temperature and stored in PBS at 4°C. The treated slices were later embedded in paraffin and subsequently sliced into 3-μm sections using a microtome. The sections were placed on slides and baked overnight at 40°C. Sections were dewaxed using xylene and rehydrated in a graded alcohol series followed by tap water. […]
Immunofluorescence staining was performed using BOND RX. NF-κB p65 (catalog no. 4764, CST) and cleaved caspase-3 (catalog no. 9661, CST) were detected with HRP-conjugated secondary antibody and visualized using tyramide-fluorophore conjugates (TSA Cy5 for both). […]

Details of data set [4]: method as in PMID 22833171, PMID 24419340. The conditions noted are these: human serum; cited from earlier work.
A further data set deals with UO-31. Description: MTT cell viability, UO-31. Format: cell-based. The conditions noted are these: Homo sapiens, UO-31, 48 h. Here is the method: as §1

Data on one molecule can be found in paper PMC9401491, “The Novel Nucleoside Analogue ProTide NUC-7738 Overcomes Cancer Resistance Mechanisms In Vitro and in a First-In-Human Phase I Clinical Trial” (Clinical Cancer Research, 2021).

Usually IC50 stands for the concentration that gives 50% inhibition. High values mean weaker potency in that assay, low ones greater potency in that assay. Broadly, the Tmax is the time at which the peak concentration occurs. By clearance is commonly meant the rate of elimination divided by the concentration. A higher clearance goes with a high capacity for elimination. As a reminder, the half-life is how long it takes for the measured level to halve. Higher therefore signals slow loss. By Cmax is commonly meant the highest concentration seen after dosing.

In the case of `C[C@H](NP(=O)(OC[C@@H]1C[C@@H](O)[C@H](n2cnc3c(N)ncnc32)O1)Oc1ccccc1)C(=O)OCc1ccccc1` (stereo partly drawn) [NUC-7738, 3′-deoxyadenosine-5′-O-phenyl-(benzyloxy-L-alaninyl)-phosphate], the IC50 stood at 4 µM with UM-RC-2, 13 µM in the data set on 786-O, 16.6 µM in the data set on SK-OV3 and 42.2 µM with UO-31. The “mean AUC(0-t)” value in data set [1] (10 mg/kg/day, sex mean at day 26) amounted to 638 ng/h/mL. The toxicology findings entry in data set [1] (20 mg/kg/day, iv slow injection, 4 cycles) is “induced changes in the liver and bone marrow”. Besides, the “systemic exposure (mean Cmax and AUC 0-t), single vs repeated administrations” value in data set [1] (all doses, significance >2-fold change) is “No significant differences”. For the same molecule, the Tmax in data set [1] (both, beagle, plasma, iv) is 15 min. The clearance in data set [1] (both, beagle, plasma, iv) lay in the range of 245 to 533 mL/min/kg. For the same molecule, the half-life in [1] (both, beagle, plasma, iv) was in the range of 13.2 to 27.6 min. Besides, the peak level in [1] (both, beagle, plasma, iv, 10 mg/kg/day) (Cmax) was 1560 ng/mL. In [1] (iv, 4 cycles (4 weeks)), the “highest nonseverely toxic dose (HNSTD)” value was determined as 10 mg/kg/day. In the data set with NF-κB (NF-κB THP1 reporter cell line, LPS, fractionation and Western blot), the “nuclear translocation of NF-κB” value is given as “a reduction in the nuclear translocation of NF-κB”. Moreover, the NF-κB activation entry in the data set with NF-κB (THP-1 SEAP reporter, LPS induced) was “significantly reduced NF-κB activation”. Also, the antitumor activity entry in data set [2] is “Encouraging signals of antitumor activity and prolonged disease stabilization”. Also, the “potency upon inhibition of ADA, hENT1 or ADK” value in the data set with HAP1 cells is on record as “mostly unaffected”. Moreover, the “nuclear p65 and tumor-cell apoptosis” value in [3] is “dose-dependent decrease in nuclear p65 and an increase in tumor-cell apoptosis”. Besides, the half-life in serum in data set [4] was 424 min.
